Results on 32 molecules are retold here after patent US7273866B2, “2-aryl thiazole derivatives as KCNQ modulators” (Bristol-Myers Squibb Company, priority 2002, dated 2007).

The assay concerns KCNQ channels. As to the kind of experiment: Thallium flux assay for KCNQ channel openers. It counts as cell-based. Conditions: HEK-293 cells stably transfected with a KCNQ family member; for Min. conc. response: minimal active concentration: lowest concentration giving signal amplitude >= four standard deviations of negative controls; for EC50: thallium flux, 10 point concentration series. The protocol: Thallium Flux Assay for KCNQ channel Openers. The thallium assay is a modification of that published by Weaver and is referenced in its entirety (Weaver, C. D. WO 02/31508, 2002).
Approximately 20,000 cells/well of an HEK-293 cell line stably transfected with one of the members of the KCNQ family were plated into clear-bottom, black-walled, poly-D-lysine coated, 384 well assay plates in 20 μl/well of low chloride plating medium. Low chloride plating medium was composed of the following: sodium gluconate, 109 mM; potassium gluconate, 5.4 mM; hemi-calcium gluconate, 3.6 mM; magnesium sulfate, 0.8 mM; sodium bicarbonate, 26.2 mM; sodium phosphate monobasic, 1.2 mM; glutamine, 2 mM; glucose, 5 mM; 4-(2-hydroxyethyl)-1-piperazineethanesulfonic acid (HEPES) (pH 7.3) 10 mM, MEM vitamin solution (10× concentration of vitamins, Gibco/LifeTechnologies 11120-052) and MEM amino acid solution (1× concentration of amino acids, Gibco/LifeTechnologies 11130-051).
Following overnight incubation in a 5% CO2 incubator at 37° C., the cells in the plates were loaded with 20 μl/well of a dye loading solution containing the commercially available thallium-sensitive fluorescent dye BTC-AM, the acetomethoxy ester of BTC (see U.S. Pat. No. 5,501,980) (2 μM) and pluronic acid F-127 (Molecular Probes P 6867) (0.02% w/v) in chloride free assay buffer. Chloride free assay buffer was composed of the following: sodium gluconate, 140 mM; potassium gluconate, 2.5 mM; hemi-calcium gluconate, 6 mM; hemi-magnesium gluconate, 2 mM; glucose, 5 mM; HEPES (pH 7.3), 10 mM.
Following incubation in the dye loading solution for from 45-90 min at room temperature, the dye loading solution was removed by aspiration and replaced with 40 μl/well of chloride free assay buffer.
Prior to addition to cell plates, test compound and standard compounds were dissolved in DMSO to 3 mM concentration. Compounds were then diluted from the 3 mM stock to 100-fold over the final assay concentration in DMSO. Finally, compounds in DMSO were diluted from 100-fold over the final assay concentration to 5-fold over the final assay concentration in chloride free assay buffer.
Ten μl/well of compounds at 5-fold over the final assay concentration were then added to the cell plates. This represents a 1:5 dilution, yielding the final test concentration. The wells used for test compounds were A1-P20. Wells A21-P22 contained a standard opener and a maximally efficacious concentration (positive control). Wells A23-P24 contained chloride free assay buffer containing 1% DMSO (negative control).
Following addition of test compounds, the plates were loaded onto the Molecular Devices FLIPR. The 488 nm line of the argon laser was used to excite the BTC and the emission filter was a 540(+/−30) nm. Images were collected at 1 Hz. Ten seconds of baseline were collected and then the FLIPR was used to add 13 μl/well of a stimulus buffer composed of 7.5 mM Tl2SO4 in chloride free assay buffer. Images were collected for an additional 60 seconds.
For data analysis, the amplitude of the average of the negative controls was subtracted from all wells. The amplitudes of the test compounds were then compared to the value of four standard deviations of the negative control wells. The lowest concentration of a test compound sufficient to generate a signal amplitude greater than or equal to four standard deviations from the amplitude of the negative controls was defined as the minimal active concentration.
For generating EC50 values, compounds were serially diluted in 1:3 volume increments to produce a 10 point concentration series. EC50 values were calculated by fitting the resulting amplitudes to a single-site logistic equation. EC50 was defined as the concentration of test compound required to yield 50% of the maximal response. Maximal response (Maximal opening) was the largest signal amplitude divided by the negative control amplitude generated by any concentration of a test compound. […]

Usually EC50 stands for the midpoint of the concentration-response curve. Turning to `Cc1cccnc1-c1nc(C(F)(F)F)c(C(=O)N[C@@H](C)c2cccc(-c3cccnc3)c2)s1` [Example 73, (S)-2-(3-methylpyridin-2-yl)-4-(trifluoromethyl)-N-[1-[3-(3-pyridinyl)phenyl]ethyl]-5-thiazolecarboxamide], the Min. conc. response is 0.3 µM and the EC50 fell in the range of 0.05 to 1 µM.
On the same counts, the results for `C[C@H](NC(=O)c1sc(-c2ncccc2CN2CCOCC2)nc1C(F)(F)F)c1cccc(-c2cccnc2)c1` [Example 67, (S)-2-[3-(4-morpholinylmethyl)pyridin-2-yl]-4-(trifluoromethyl)-N-[1-[3-(3-pyridinyl)phenyl]ethyl]-5-thiazolecarboxamide] are 30 µM and 0.05 to 1 µM.
Taken in the same sequence, the figures for `CC(NC(=O)c1sc(-c2ccccc2N2CCOCC2)nc1C(F)(F)F)c1cccc(C(F)(F)F)c1` (stereo not shown) [Example 56, 2-[2-(4-morpholinyl)phenyl]-4-(trifluoromethyl)-N-[1-[3-(trifluoromethyl)phenyl]ethyl]-5-thiazolecarboxamide] were 0.3 µM and 0.05 to 1 µM.
With `COc1cccc(-c2nc(C(F)(F)F)c(C(=O)NCc3ccccn3)s2)c1` [Example 88], the Min. conc. response was 30 µM.
For `CC(NC(=O)c1sc(-c2cccc(N3CCOCC3)c2)nc1C(F)(F)F)c1cccc(C(F)(F)F)c1` (stereo not shown) [Example 98], the Min. conc. response came to 3 µM.
On the same count and under the same terms, for `CCN(Cc1ccncc1)Cc1ccccc1-c1nc(C(F)(F)F)c(C(=O)NCc2cccc(OC)c2)s1` [Example 114] the value was 3 µM; for `CCN(CC)CCOc1ccccc1-c1nc(C(F)(F)F)c(C(=O)N[C@@H](C)c2cccc(N3CCOCC3)c2)s1` [Example 100], 30 µM; for `CC(NC(=O)c1sc(-c2ccccc2CN2CCOCC2)nc1C(F)(F)F)c1cccc(OC(F)(F)F)c1` (stereo not shown) [Example 108], 0.3 µM.
The molecule `CCN(Cc1ccncc1)Cc1cccnc1-c1nc(C(F)(F)F)c(C(=O)N[C@@H](C)c2cccc(N3C[C@@H](C)O[C@@H](C)C3)c2)s1` [Example 66] came in with a Min. conc. response of 3 µM and a 50% effective concentration (EC50) of 0.05 to 1 µM.
`COc1cccc([C@H](C)NC(=O)c2sc(-c3cc(F)ccc3OC)nc2C(F)(F)F)c1` [Example 48, (S)-2-(5-fluoro-2-methoxyphenyl)-4-(trifluoromethyl)-N-[1-[3-(methoxy)phenyl]ethyl]-5-thiazolecarboxamide] yielded a Min. conc. response of 3 µM and an EC50 of 0.05 to 1 µM.
`CCN(Cc1ccncc1)Cc1ccccc1-c1nc(C(F)(F)F)c(C(=O)NCc2cccc(OC(F)(F)F)c2)s1` [Example 59] displayed a Min. conc. response of 3 µM and an EC50 of 0.05 to 1 µM.
`O=C(NCc1cccc(F)c1)c1sc(-c2cccc(F)c2)nc1C(F)(F)F` [Example 93] had a Min. conc. response of 10 µM.
`COc1cccc([C@H](C)NC(=O)c2sc(-c3ccccc3CN(C)C)nc2C(F)(F)F)c1` [Example 76]: the Min. conc. response came out at 10 µM and the concentration for a half-maximal effect (EC50) fell in the range of 0.05 to 1 µM.
`CCN(CC)CCOc1ccccc1-c1nc(C(F)(F)F)c(C(=O)N[C@@H](C)c2cccc(OC)c2)s1` [Example 101] gave a Min. conc. response of 3 µM.
As to `COc1ccccc1-c1nc(C(F)(F)F)c(C(=O)NC(C)c2cccc(N3CCCC3)c2)s1` (stereo not shown) [Example 33, 2-(2-methoxyphenyl)-4-(trifluoromethyl)-N-[1-[3-(1-pyrrolidinyl)phenyl]ethyl]-5-thiazolecarboxamide], the Min. conc. response was determined as 3 µM and the EC50 lay within 0.05 to 1 µM.
With `COc1ccccc1-c1nc(C(F)(F)F)c(C(=O)NC(C)c2cccc(N)c2)s1` (stereo not shown) [Example 39, 2-(2-methoxyphenyl)-4-(trifluoromethyl)-N-[1-(3-aminophenyl)ethyl]-5-thiazolecarboxamide], the Min. conc. response amounted to 10 µM and the concentration giving a half-maximal response (EC50) lay within 1 to 20 µM.
`COc1ccc(-c2nc(C(F)(F)F)c(C(=O)NC(C)c3cccc(C(F)(F)F)c3)s2)cc1OC` (stereo not shown) [Example 89] yielded a Min. conc. response of 30 µM.
Molecule `CC(NC(=O)c1sc(-c2csc3ccccc23)nc1C(F)(F)F)c1cccc(CN2CCCC2)c1` (stereo not shown) [Example 103] showed a Min. conc. response of 0.3 µM.
`CCN(CC)CCOc1ccccc1-c1nc(C(F)(F)F)c(C(=O)NCc2cccc(F)c2)s1` [Example 54] yielded a Min. conc. response of 0.3 µM and an EC50 of 1 to 20 µM.
`CCN(CC)Cc1ccccc1-c1nc(C(F)(F)F)c(C(=O)NCc2cccc(F)c2)s1` [Example 79] gave a Min. conc. response of 3 µM and an EC50 of 0.05 to 1 µM.
The molecule `CC(NC(=O)c1sc(-c2ccccc2F)nc1C(F)(F)F)c1cccc(CN2CCOCC2)c1` (stereo not shown) [Example 37, 2-(2-fluorophenyl)-4-(trifluoromethyl)-N-[1-[3-[(4-morpholinyl)methyl]phenyl]ethyl]-5-thiazolecarboxamide] registered a Min. conc. response of 3 µM and an EC50 of 1 to 20 µM.
The molecule `CC(NC(=O)c1sc(-c2ccc(F)cc2)nc1C(F)(F)F)c1cccc(OC(F)(F)F)c1` (stereo not shown) [Example 17, 2-(4-fluorophenyl)-4-(trifluoromethyl)-N-[1-[3-(trifluoromethoxy)phenyl]ethyl]-5-thiazolecarboxamide] returned a Min. conc. response of 0.3 µM and a half-maximal effective concentration (EC50) below 0.05 µM.
`COc1ccc(F)cc1-c1nc(C(F)(F)F)c(C(=O)NCc2cccc(F)c2)s1` [Example 44, 2-(5-fluoro-2-methoxyphenyl)-4-(trifluoromethyl)-N-[(3-fluorophenyl)methyl]-5-thiazolecarboxamide] had a Min. conc. response of 3 µM and a concentration for a half-maximal effect (EC50) of 0.05 to 1 µM.
As for `COc1ccc(-c2nc(C(F)(F)F)c(C(=O)NCc3cccc(OC(F)(F)F)c3)s2)cc1OC` [Example 91], the Min. conc. response was found to be 30 µM.
Molecule `CCN(Cc1cccnc1-c1nc(C(F)(F)F)c(C(=O)N[C@@H](C)c2cccc(N3C[C@@H](C)O[C@@H](C)C3)c2)s1)C(C)C` [Example 65] displayed a Min. conc. response of 10 µM and a half-maximal effective concentration (EC50) of 0.05 to 1 µM.
`COc1ccc(-c2nc(C(F)(F)F)c(C(=O)NC(C)c3cccc(OC(F)(F)F)c3)s2)cc1OC` (stereo not shown) [Example 29, 2-(3,4-dimethoxyphenyl)-4-(trifluoromethyl)-N-[1-[3-(trifluoromethoxy)phenyl]ethyl]-5-thiazolecarboxamide] registered a Min. conc. response of 3 µM and a 50% effective concentration (EC50) of 0.05 to 1 µM.
On the same counts, the results for `CC(NC(=O)c1sc(-c2ccccc2F)nc1C(F)(F)F)c1cccc(N(C)Cc2ccco2)c1` (stereo not shown) [Example 35, 2-(2-fluorophenyl)-4-(trifluoromethyl)-N-[1-[3-[(2-furanylmethyl)methylamino]phenyl]ethyl]-5-thiazolecarboxamide] are 0.3 µM and 0.05 to 1 µM.
As to `CCN(CC)CCOc1ccccc1-c1nc(C(F)(F)F)c(C(=O)NC(C)c2cccc(OC(F)(F)F)c2)s1` (stereo not shown) [Example 104], the Min. conc. response came out at 10 µM.
In turn, `COc1cccc([C@H](C)NC(=O)c2sc(-c3ccccc3CN3CCOCC3)nc2C(F)(F)F)c1` [Example 111] displayed a Min. conc. response of 0.3 µM.
As for `CC(NC(=O)c1sc(-c2cccc(F)c2)nc1C(F)(F)F)c1cccc(OC(F)(F)F)c1` (stereo not shown) [Example 95], the Min. conc. response stood at 0.3 µM.
Take `CC(NC(=O)c1sc(-c2ccc3c(c2)OCO3)nc1C(F)(F)F)c1cccc(C(F)(F)F)c1` (stereo not shown) [Example 87]: the Min. conc. response was found to be 0.3 µM.
As to `COc1ccccc1-c1nc(C(F)(F)F)c(C(=O)NC(C)c2cccc(Br)c2)s1` (stereo not shown) [Example 96], the Min. conc. response worked out at 3 µM.
